Laboratory results reported in patent US20210032257A1, “(E)-1-(4-(DIMETHYLAMINO)BUT-2-ENOYL)PYRROLIDIN-3-YL 4-((3-ISOPROPYL-5-METHYLPYRAZOLO[1,5-A]PYRIMIDIN-7-YL)AMINO)PIPERIDINE-1-CARBOXYLATE FOR INHIBITING CDK7” (Eli Lilly and Company, priority 2017, published 2021).
pIC50: −log10 of the molar value.

Legend:
[1] = test system: cMyc in HCT116 cells; assay: cMyc cell based Acumen assay; conditions: Homo sapiens, HCT-116, 4 hours, read-out: Relative IC50 for cMyc
[2] = test system: CORL88; assay: Biomarker study proliferation (CellTiter-Glo); assay type: cell-based
In short: (§1)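 Cell lines were chosen by ARID1A, KMT2C, KMT2D and/or RB1 status from COSMIC and cBioportal. Viability after 7 days of treatment was measured by CellTiter-Glo luminescence, with 5 μM staurosporine as the full-inhibition control.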

[3] = test system: HCC1187; assay: Biomarker study proliferation (CellTiter-Glo); assay type: cell-based
In short: as §1

[4] = test system: IMR32; assay: Biomarker study proliferation (CellTiter-Glo); assay type: cell-based
In short: as §1

[5] = test system: KPL1; assay: Biomarker study proliferation (CellTiter-Glo); assay type: cell-based
In short: as §1

[6] = test system: KYSE150; assay: Biomarker study proliferation (CellTiter-Glo); assay type: cell-based
In short: as §1

[7] = test system: KYSE30; assay: Biomarker study proliferation (CellTiter-Glo); assay type: cell-based
In short: as §1

[8] = test system: NCIH2196; assay: Biomarker study proliferation (CellTiter-Glo); assay type: cell-based
In short: as §1

[9] = test system: NCIH526; assay: Biomarker study proliferation (CellTiter-Glo); assay type: cell-based
In short: as §1

[10] = test system: OCUM1; assay: Biomarker study proliferation (CellTiter-Glo); assay type: cell-based
In short: as §1

[11] = test system: OZ; assay: Biomarker study proliferation (CellTiter-Glo); assay type: cell-based
In short: as §1

[12] = test system: PANC1; assay: Biomarker study proliferation (CellTiter-Glo); assay type: cell-based
In short: as §1

[13] = test system: SKMEL28; assay: Biomarker study proliferation (CellTiter-Glo); assay type: cell-based
In short: as §1

[14] = test system: SKMES1; assay: Biomarker study proliferation (CellTiter-Glo); assay type: cell-based
In short: as §1

[15] = test system: SNU398; assay: Biomarker study proliferation (CellTiter-Glo); assay type: cell-based
In short: as §1

[16] = test system: SNU475; assay: Biomarker study proliferation (CellTiter-Glo); assay type: cell-based
In short: as §1

[17] = test system: SW48; assay: Biomarker study proliferation (CellTiter-Glo); assay type: cell-based
In short: as §1

Cc1cc(NC2CCN(C(=O)O[C@H]3CCN(C(=O)/C=C/CN(C)C)C3)CC2)n2ncc(C(C)C)c2n1 [Example 1, [(3S)-1-[(E)-4-(dimethylamino)but-2-enoyl]pyrrolidin-3-yl] 4-[(3-isopropyl-5-methyl-pyrazolo[1,5-a]pyrimidin-7-yl)amino]piperidine-1-carboxylate]
pIC50 [1]: 7.08 | Anti-proliferation effect % Inh. ([2]; CORL88, LUNG, 7 days): 34% | Anti-proliferation effect Outcome ([2]; CORL88, LUNG, 7 days): Insensitive (insensitive (IC50≥1 μM)) | pIC50 ([2]; Homo sapiens, COR-L88, 168 h, read-out: Anti-proliferation effect IC50): 5.38 | Anti-proliferation effect % Inh. ([3]; HCC1187, BREAST, 7 days): 73% | Anti-proliferation effect Outcome ([3]; HCC1187, BREAST, 7 days): Cytotoxic (cytotoxic (IC50<1 μM and % inhibition ≥70%)) | pIC50 ([3]; Homo sapiens, HCC1187, 168 h, read-out: Anti-proliferation effect IC50): 7.57 | pIC50 ([4]; Homo sapiens, IMR-32, 168 h, read-out: Anti-proliferation effect IC50): 8.70 | Anti-proliferation effect % Inh. ([4]; IMR32, CNS, 7 days): 100% | Anti-proliferation effect Outcome ([4]; IMR32, CNS, 7 days): Cytotoxic (cytotoxic (IC50<1 μM and % inhibition ≥70%)) | Anti-proliferation effect % Inh. ([5]; KPL1, BREAST, 7 days): 43% | Anti-proliferation effect Outcome ([5]; KPL1, BREAST, 7 days): Cytostatic (cytostatic (IC50<1 μM and % inhibition <70%)) | pIC50 ([5]; KPL-1, 168 h, read-out: Anti-proliferation effect IC50): 6.18 | pIC50 ([6]; Homo sapiens, KYSE-150, 168 h, read-out: Anti-proliferation effect IC50): 7.38 | Anti-proliferation effect % Inh. ([6]; KYSE150, OESOPHAGUS, 7 days): 64% | Anti-proliferation effect Outcome ([6]; KYSE150, OESOPHAGUS, 7 days): Cytostatic (cytostatic (IC50<1 μM and % inhibition <70%)) | pIC50 ([7]; Homo sapiens, KYSE-30, 168 h, read-out: Anti-proliferation effect IC50): 7.12 | Anti-proliferation effect % Inh. ([7]; KYSE30, OESOPHAGUS, 7 days): 76% | Anti-proliferation effect Outcome ([7]; KYSE30, OESOPHAGUS, 7 days): Cytotoxic (cytotoxic (IC50<1 μM and % inhibition ≥70%)) | pIC50 ([8]; Homo sapiens, NCI-H2196, 168 h, read-out: Anti-proliferation effect IC50): 6.91 | Anti-proliferation effect % Inh. ([8]; NCIH2196, LUNG, 7 days): 63% | Anti-proliferation effect Outcome ([8]; NCIH2196, LUNG, 7 days): Cytostatic (cytostatic (IC50<1 μM and % inhibition <70%)) | pIC50 ([9]; Homo sapiens, NCI-H526, 168 h, read-out: Anti-proliferation effect IC50): 7.74 | Anti-proliferation effect % Inh. ([9]; NCIH526, LUNG, 7 days): 94% | Anti-proliferation effect Outcome ([9]; NCIH526, LUNG, 7 days): Cytotoxic (cytotoxic (IC50<1 μM and % inhibition ≥70%)) | pIC50 ([10]; OCUM1, 168 h, read-out: Anti-proliferation effect IC50): 7.57 | Anti-proliferation effect % Inh. ([10]; OCUM1, STOMACH, 7 days): 82% | Anti-proliferation effect Outcome ([10]; OCUM1, STOMACH, 7 days): Cytotoxic (cytotoxic (IC50<1 μM and % inhibition ≥70%)) | pIC50 ([11]; 168 h, read-out: Anti-proliferation effect IC50): 7.30 | Anti-proliferation effect % Inh. ([11]; OZ, LIVER, 7 days): 77% | Anti-proliferation effect Outcome ([11]; OZ, LIVER, 7 days): Cytotoxic (cytotoxic (IC50<1 μM and % inhibition ≥70%)) | pIC50 ([12]; Homo sapiens, PANC-1, 168 h, read-out: Anti-proliferation effect IC50): 7.15 | Anti-proliferation effect % Inh. ([12]; PANC1, PANCREAS, 7 days): 47% | Anti-proliferation effect Outcome ([12]; PANC1, PANCREAS, 7 days): Cytostatic (cytostatic (IC50<1 μM and % inhibition <70%)) | pIC50 ([13]; Homo sapiens, SK-MEL-28, 168 h, read-out: Anti-proliferation effect IC50): 7.01 | Anti-proliferation effect % Inh. ([13]; SKMEL28, SKIN, 7 days): 61% | Anti-proliferation effect Outcome ([13]; SKMEL28, SKIN, 7 days): Cytostatic (cytostatic (IC50<1 μM and % inhibition <70%)) | pIC50 ([14]; Homo sapiens, SK-MES-1, 168 h, read-out: Anti-proliferation effect IC50): 7.55 | Anti-proliferation effect % Inh. ([14]; SKMES1, LUNG, 7 days): 80% | Anti-proliferation effect Outcome ([14]; SKMES1, LUNG, 7 days): Cytotoxic (cytotoxic (IC50<1 μM and % inhibition ≥70%)) | pIC50 ([15]; Homo sapiens, SNU-398, 168 h, read-out: Anti-proliferation effect IC50): 7.68 | Anti-proliferation effect % Inh. ([15]; SNU398, LIVER, 7 days): 85% | Anti-proliferation effect Outcome ([15]; SNU398, LIVER, 7 days): Cytotoxic (cytotoxic (IC50<1 μM and % inhibition ≥70%)) | pIC50 ([16]; Homo sapiens, SNU-475, 168 h, read-out: Anti-proliferation effect IC50): 5.41 | Anti-proliferation effect % Inh. ([16]; SNU475, LIVER, 7 days): 28% | Anti-proliferation effect Outcome ([16]; SNU475, LIVER, 7 days): Insensitive (insensitive (IC50≥1 μM)) | pIC50 ([17]; Homo sapiens, SW48, 168 h, read-out: Anti-proliferation effect IC50): 8.30 | Anti-proliferation effect % Inh. ([17]; SW48, INTESTINE, 7 days): 89% | Anti-proliferation effect Outcome ([17]; SW48, INTESTINE, 7 days): Cytotoxic (cytotoxic (IC50<1 μM and % inhibition ≥70%))
